The values below come from US11008325B2, “Inhibitors of cancer invasion, attachment, and/or metastasis” (VIRGINIA COMMONWEALTH UNIVERSITY, priority 2016, dated 2021).

In test [1] the test system is RWPE-1 cells overexpressing mda-9. The experiment in a line: modified Boyden Chamber invasion assay. In kind it is cell-based, human. On the procedure: (§1) FIGS. 17A-17H. Effect of PDZ1i on invasion, MDA-9/IGF-R1 interaction and IGF-R1, STAT3 and SRC phosphorylation. FIG. 17A) Different cancer cells (25,000 cells/well) from various anatomic origins were pre-treated with either DMSO (vehicle) or PDZ1i (dose as indicated) and invasion ability was assayed using modified Boyden Chamber according to the manufacturer's instructions. Photomicrographs were taken at 10× magnification and quantification of the results of three independent experiments is provided in the graphs. The data presents mean±S.D. B) The designated cells were treated with DMSO or PDZ1i and invasion properties were determined using a modified Boyden Chamber assay (BD bioscience). RWPE-1 mda-9: mda-9 transiently overexpressing cell line. […] FIG. 17E) Cells were growth starved for 24 h and treated with either DMSO or PDZ1i (dose indicated in μM) for 6 h. Cells were treated with human recombinant IGFBP-2 (hIGFBP-2, 10 ng/ml) for 2 h, lysates were prepared and western blot analysis was conducted with specific antibodies. […] Cells were treated with human recombinant IL-6 (hIGFBP-2, 1 ng/ml) for 2 h, cell lysates were prepared and analyzed by western blotting. […]
(§2) Boyden chamber assays were done to investigate the invasive properties of cancer cells^26, 27. […] After 18 h, invasive cells were photographed and analyzed.

For test [2], the system named is PDZ domain from X11/mint scaffold protein. The experiment in a line: NMR [15N,1H] HSQC counter screen. In kind it is binding. To be noted: 20 μM protein, 100 μM 113B7. As for the experimental part: FIGS. 4A-4E. FIG. 4A. Chemical structures of the two initial fragment hits (top) and the structure of the resulting molecule 113B7 (PDZ1i). FIG. 4B. Superposition of 2D [^15N, ^1H]-HSQC spectra of 50 μM MDA-9 PDZ12 tandem domain in the absence and presence of 350 μM 113B7. FIG. 4C. Binding curve and representative spectra for the titration of 113B7 against MDA-9 PDZ12 tandem domain. Top: Zoom of box region in FIG. 4B after titrating 113B7 into Mda9 PDZ, tandem domain. The cross peak corresponding to the backbone amide of residue A147 experiences a gradual shift upon the addition of 113B7. Bottom: Titration curve of 113B7 for residue A147. The dissociation constant for the binding of 113B7 to MDA-9 was calculated to be 21.37±8.62 μM. FIG. 4D. Superposition of 2D [^15N, ^1H]-HSQC spectra of 50 μM PDZ domain from X11/mint scaffold protein ([…]; 33% identity with PDZ1) are shown in absence and in presence of […] 113B7. […] FIG. 4E. Docked structure of 113B7 in complex with MDA-9 PDZ tandem domain (PDB: 1W9E). The pose was obtained with GOLD. Two PDZ domains of MDA-9 are labeled.
FIG. 52. Left panel, Docked structure of compound 113B7 on the surface of MDA-9/Syntenin. The docked structure is supported by NMR chemical shift mapping data. […]
For orientation: The purpose of a counterscreen is to sort out artefacts and off-target activity.

For test [3], the system named is various types of cancer cells including PC. The experiment in a line: modified Boyden Chamber invasion assay. The class given is cell-based, human. To be noted: pre-treatment, dose as indicated (20 μM or 40 μM). On the procedure: as §1, §2

Each structure is given as a SMILES string. “Also recorded” adds a separate entry of the source.

For the molecule `Cc1cc(NC(=O)c2nc3[nH]c4c(c(=O)n3n2)CCC4)c(C)cc1NC(=O)CCc1nnc(-c2ccccc2)o1` [113B7, N-(2,5-dimethyl-4-(3-(5-phenyl-1,3,4-oxadiazol-2-yl)propanamido)phenyl)-8-oxo-5,6,7,8-tetrahydro-4H-cyclopenta[d][1,2,4]triazolo[1,5-a]pyrimidine-2-carboxamide], in test [1], the mda-9-mediated invasion result was “significantly attenuated”. Also, in test [2], the “binding to X11/mint PDZ domain” value is “No appreciable binding is detected”. Moreover, the invasion entry was “inhibited invasion in a dose-dependent manner; also recorded: significantly inhibited the invasion” in test [3] and “significantly inhibited the invasion” in test [3] (listed as PDZ1i).
